Values of other authors, collected in US8273874B2, “Method of dynamic nuclear polarisation (DNP) and compounds and compositions for use in the method” (GE Healthcare AS, priority 2006, dated 2012).

Conditions: human full blood at 37° C.

CC(=O)[13C](=O)O [^13C1-pyruvate]
T1 relaxation: about 42 s
